Test system: T1, chitinase from S. griseus
T1 construct: gene chiC; commercial native preparation (Sigma Aldrich), low purity, antibody-reactive band about 23 kDa; authors ascribe it to family 19 chitinase C
Test: fluorimetric release of 4-methylumbelliferone, Michaelis-Menten fit
Type: biochemical, Streptomyces griseus
Conditions: McIlvain's buffer, pH 5.5, 37 °C, 1 h; no flavonoid (control of the quercetin series); apparent; commercial low-purity enzyme
Text: fluorimetric release of 4-methylumbelliferone, Michaelis-Menten fit on chitinase from S. griseus

CC(=O)N[C@H]1[C@H](Oc2ccc3c(C)cc(=O)oc3c2)O[C@H](CO)[C@@H](O[C@@H]2O[C@H](CO)[C@@H](O[C@@H]3O[C@H](CO)[C@@H](O)[C@H](O)[C@H]3NC(C)=O)[C@H](O)[C@H]2NC(C)=O)[C@@H]1O [4-methylumbelliferyl β-d-N,N′,N′-tri-acetyl-chitotrioside]
Km: 35.4 ± 4.18 µM

Source: article PMC6273270, “Flavonoid Interaction with a Chitinase from Grape Berry Skin: Protein Identification and Modulation of the Enzymatic Activity” (Molecules, 2016)
